The test system of assay [1] is HAP1 MTAP-deleted cell line. Put plainly: SDMA in-cell western assay, HAP1 MTAP-deleted. It is filed as cell-based. As to conditions: for IC50: Homo sapiens, HAP1, SDMA in-cell western, HAP1 MTAP-deleted; for MTAP intact/deleted ratio: IC50 ratio HAP1 MTAP-intact / HAP1 MTAP-deleted, SDMA in-cell western. In a few lines:
(§1)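 Compounds were tested in HAP1 cells differing only in MTAP status (endogenous expression versus null). Cellular SDMA levels were then measured by in-cell western, giving an IC50 in each background.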

The target of assay [2] is T1, PRMT5 (Homo sapiens, UniProt O14744).
T1 construct: purchased Viva (custom protein)
Kind of assay: PRMT5 biochemical IC50 assay with no cofactor. As to conditions: PRMT5, no cofactor; read-out: No Cofactor/rel IC50. An excerpt:
Table 1 indicates IC50 values (μM) against PRMT5 for exemplary compounds in the presence of SAM as cofactor, with no cofactor, and with MTA as cofactor, respectively (columns 4-6). […] Ki values can be calculated from the IC50 values as described in the Examples section. As detailed in the Examples section, for the assay performed in the presence of SAM, IC50=Ki×1.5 (Ki=IC50/1.5).

In assay [3] the test system is HAP1 MTAP-intact cell line. Kind of assay: SDMA in-cell western assay, HAP1 MTAP-intact. It is filed as cell-based. As to conditions: Homo sapiens, HAP1, SDMA in-cell western, HAP1 MTAP-intact; read-out: MTAP HAP1 intact IC50. In a few lines: as §1
Assay [4] deals with T1, PRMT5. Kind of assay: PRMT5 biochemical IC50 assay with MTA as cofactor. As to conditions: PRMT5, MTA as cofactor; read-out: MTA IC50.
In assay [5] the test system is HAP1 MTAP-deleted cell line. Kind of assay: Viability assay, MTAP-deleted cell line. It is filed as cell-based. As to conditions: Homo sapiens, read-out: HAP1 MTAP deleted viability. The source says:
Table 1 additionally indicates IC50 values in a viability assay for the MTAP-deleted cell line (column 10), indicating the effect of treatment with compound on cell survival.

Assay [6] concerns the target T1, PRMT5. Put plainly: PRMT5 biochemical IC50 assay with SAM as cofactor. As to conditions: PRMT5, SAM as cofactor; read-out: SAM IC50.
Setting [7] is: read-out: HAP 1 MTAP deleted IC50.
The mark [8] stands for this setting: HAP1, viability IC50, MTAP-deleted cell line.

Experimental findings from patent US11999727B2 (Tango Therapeutics, Inc., priority 2020, dated 2024) are described below.

T1 sequence (O14744 whole entry): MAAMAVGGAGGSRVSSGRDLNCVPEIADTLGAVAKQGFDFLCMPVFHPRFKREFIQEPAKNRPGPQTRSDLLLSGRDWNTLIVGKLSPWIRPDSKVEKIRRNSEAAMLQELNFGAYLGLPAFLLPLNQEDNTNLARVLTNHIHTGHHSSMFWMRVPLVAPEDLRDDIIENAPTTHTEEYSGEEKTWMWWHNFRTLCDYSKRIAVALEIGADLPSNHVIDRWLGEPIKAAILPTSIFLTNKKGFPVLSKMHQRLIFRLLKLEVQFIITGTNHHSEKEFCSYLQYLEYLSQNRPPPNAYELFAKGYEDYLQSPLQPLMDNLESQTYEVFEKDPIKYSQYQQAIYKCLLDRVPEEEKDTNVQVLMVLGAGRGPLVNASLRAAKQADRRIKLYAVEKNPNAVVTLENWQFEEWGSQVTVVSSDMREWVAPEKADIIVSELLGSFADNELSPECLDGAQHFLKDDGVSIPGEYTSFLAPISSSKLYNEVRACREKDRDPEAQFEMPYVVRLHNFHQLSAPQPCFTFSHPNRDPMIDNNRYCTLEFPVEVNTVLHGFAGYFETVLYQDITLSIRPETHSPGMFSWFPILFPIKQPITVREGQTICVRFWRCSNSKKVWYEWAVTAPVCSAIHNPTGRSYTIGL
T1 sequence (Q9BQA1 whole entry partner): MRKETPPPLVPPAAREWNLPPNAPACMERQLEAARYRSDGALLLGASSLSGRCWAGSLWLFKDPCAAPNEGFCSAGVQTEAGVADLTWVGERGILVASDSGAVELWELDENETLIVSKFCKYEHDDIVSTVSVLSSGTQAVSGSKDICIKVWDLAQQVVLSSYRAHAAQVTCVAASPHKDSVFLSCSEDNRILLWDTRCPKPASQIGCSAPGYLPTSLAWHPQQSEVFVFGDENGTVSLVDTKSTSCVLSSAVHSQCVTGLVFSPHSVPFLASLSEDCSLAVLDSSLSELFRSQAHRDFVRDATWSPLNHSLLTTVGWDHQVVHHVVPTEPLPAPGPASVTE

For `CC(=O)Nc1ccc([C@@H]2CC[C@@H](C)CN2C(=O)C(=O)Nc2cnc(N)c(C)c2)cc1` (single isomer, unassigned) [Compound 527], the IC50 in assay [1] (read-out: HAP1 MTAP deleted IC50) is less than 100 nM; on PRMT5 [2], less than 50 nM; in assay [3], 100 to 1000 nM; at PRMT5 [4], less than 50 nM; in assay [5] (HAP1, viability assay, MTAP-deleted cell line), less than 1000 nM; at PRMT5 [6], 50 to 500 nM. Also, the MTAP intact/deleted ratio entry in assay [1] was “A (an IC50 ratio greater than or equal to 10 fold)”.
As to `Cc1cc(NC(=O)C(=O)N2C[C@@H](C)CC[C@@H]2c2ccc(NCC(F)(F)F)cc2)cnc1N` (single isomer, unassigned) [Compound 528], the IC50 is greater than 1000 nM in assay [1] (setting [7]); greater than 500 nM at PRMT5 [2]; greater than 1000 nM in assay [3]; greater than 500 nM at PRMT5 [4]; 1000 to 10000 nM in assay [5] (setting [8]); greater than 500 nM at PRMT5 [6]. The MTAP intact/deleted ratio entry in assay [1] was “B (an IC50 ratio greater than or equal to 3 fold but lower than 10 fold)”.
For the molecule `C[C@H]1CC[C@H]([C@@H]2CCC[C@H](O)C2)N(C(=O)C(=O)Nc2cncc(C(N)=O)c2)C1` (single isomer, unassigned) [Compound 529], the IC50 in assay [1] (setting [7]) was greater than 1000 nM; at PRMT5 [2] it was greater than 500 nM; in assay [3], greater than 1000 nM; on PRMT5 [4] it was greater than 500 nM; in assay [5] (setting [8]), greater than 10000 nM; at PRMT5 [6], greater than 500 nM. The MTAP intact/deleted ratio entry in assay [1] was “C (an IC50 ratio of less than 3 fold)”.
As for `C[C@@H]1CC[C@@H]([C@H]2CCC[C@H](O)C2)N(C(=O)C(=O)Nc2cncc(C(N)=O)c2)C1` (single isomer, unassigned) [Compound 530], the IC50 is greater than 1000 nM in assay [1] (setting [7]); greater than 500 nM on PRMT5 [2]; greater than 1000 nM in assay [3]; greater than 500 nM on PRMT5 [4]; greater than 10000 nM in assay [5] (setting [8]); greater than 500 nM at PRMT5 [6]. Moreover, in assay [1], the MTAP intact/deleted ratio result is on record as “C (an IC50 ratio of less than 3 fold)”.
With `C[C@@H]1CC[C@@H]([C@H]2CCC[C@@H](O)C2)N(C(=O)C(=O)Nc2cncc(C(N)=O)c2)C1` (single isomer, unassigned) [Compound 531], the IC50 in assay [1] (setting [7]) was greater than 1000 nM; at PRMT5 [2], greater than 500 nM; in assay [3], greater than 1000 nM; at PRMT5 [4] it was 50 to 500 nM; in assay [5] (setting [8]), greater than 10000 nM; at PRMT5 [6], 50 to 500 nM. Further, the MTAP intact/deleted ratio result in assay [1] was “B (an IC50 ratio greater than or equal to 3 fold but lower than 10 fold)”.
Take `COc1cc([C@@H]2CC[C@@H](C)CN2C(=O)C(=O)Nc2cncc(C(N)=O)c2)ccn1` (single isomer, unassigned) [Compound 532]: the IC50 in assay [1] (setting [7]) was less than 100 nM; at PRMT5 [2], less than 50 nM; in assay [3], greater than 1000 nM; on PRMT5 [4], less than 50 nM; in assay [5] (setting [8]) it was less than 1000 nM; on PRMT5 [6], 50 to 500 nM. Further, in assay [1], the MTAP intact/deleted ratio result is given as “A (an IC50 ratio greater than or equal to 10 fold)”.
`COc1cc([C@H]2CC[C@H](C)CN2C(=O)C(=O)Nc2cncc(C(N)=O)c2)ccn1` (single isomer, unassigned) [Compound 533]: the IC50 in assay [1] (setting [7]) was greater than 1000 nM; at PRMT5 [2] it was greater than 500 nM; in assay [3] it was greater than 1000 nM; on PRMT5 [4] it was greater than 500 nM; in assay [5] (setting [8]) it was greater than 10000 nM; at PRMT5 [6], greater than 500 nM. Moreover, the MTAP intact/deleted ratio entry in assay [1] is recorded as “C (an IC50 ratio of less than 3 fold)”.
As for `Cc1cc([C@H]2CC[C@H](C)CN2C(=O)C(=O)Nc2cncc(C(N)=O)c2)ccn1` (single isomer, unassigned) [Compound 534], the IC50 in assay [1] (setting [7]) is 100 to 1000 nM; at PRMT5 [2] it was 50 to 500 nM; in assay [3], greater than 1000 nM; on PRMT5 [4], less than 50 nM; in assay [5] (setting [8]), 1000 to 10000 nM; on PRMT5 [6], 50 to 500 nM. Also, the MTAP intact/deleted ratio entry in assay [1] is “A (an IC50 ratio greater than or equal to 10 fold)”.
Take `Cc1cc(NC(=O)C(=O)N2CCCC[C@@H]2c2ccc3[nH]ncc3c2)cnc1N` (single isomer, unassigned) [Compound 535]: the IC50 in assay [1] (setting [7]) was greater than 1000 nM; at PRMT5 [2] it was greater than 500 nM; in assay [3] it was greater than 1000 nM; at PRMT5 [4], greater than 500 nM; in assay [5] (setting [8]), greater than 10000 nM; at PRMT5 [6], greater than 500 nM. The MTAP intact/deleted ratio result in assay [1] was “B (an IC50 ratio greater than or equal to 3 fold but lower than 10 fold)”.
Turning to `COc1ncc(NC(=O)C(=O)N2C[C@@H](C)CC[C@@H]2c2cnc3[nH]ncc3c2)cc1C(N)=O` (single isomer, unassigned) [Compound 537], the IC50 is greater than 1000 nM in assay [1] (setting [7]); greater than 500 nM on PRMT5 [2]; greater than 1000 nM in assay [3]; greater than 500 nM at PRMT5 [4]; greater than 10000 nM in assay [5] (setting [8]); greater than 500 nM at PRMT5 [6]. Further, the MTAP intact/deleted ratio result in assay [1] was “C (an IC50 ratio of less than 3 fold)”.
Consider `COc1cc([C@H]2CC[C@H](C)CN2C(=O)C(=O)Nc2cnc(N)c(C)c2)ccn1` (single isomer, unassigned) [Compound 538], for which the IC50 is greater than 1000 nM in assay [1] (setting [7]); greater than 500 nM at PRMT5 [2]; greater than 1000 nM in assay [3]; greater than 500 nM at PRMT5 [4]; greater than 10000 nM in assay [5] (setting [8]); greater than 500 nM at PRMT5 [6]. For the same molecule, in assay [1], the MTAP intact/deleted ratio entry is given as “B (an IC50 ratio greater than or equal to 3 fold but lower than 10 fold)”.
With `C[C@H]1CC[C@H](c2ccncc2)N(C(=O)C(=O)Nc2cncc(C(N)=O)c2)C1` (single isomer, unassigned) [Compound 539, 5-(2-(5-methyl-2-(pyridin-4-yl)piperidin-1-yl)-2-oxoacetamido)nicotinamide], the IC50 in assay [1] (setting [7]) was less than 100 nM; on PRMT5 [2] it was 50 to 500 nM; in assay [3], greater than 1000 nM; at PRMT5 [4], less than 50 nM; in assay [5] (setting [8]), 1000 to 10000 nM; at PRMT5 [6], 50 to 500 nM. Further, in assay [1], the MTAP intact/deleted ratio entry is “A (an IC50 ratio greater than or equal to 10 fold)”.
For the molecule `C[C@@H]1CC[C@@H](c2ccncc2)N(C(=O)C(=O)Nc2cncc(C(N)=O)c2)C1` (single isomer, unassigned) [Compound 544, 5-(2-(5-methyl-2-(pyridin-4-yl)piperidin-1-yl)-2-oxoacetamido)nicotinamide], the IC50 in assay [1] (setting [7]) is greater than 1000 nM; at PRMT5 [2], greater than 500 nM; in assay [3] it was greater than 1000 nM; at PRMT5 [4] it was greater than 500 nM; in assay [5] (setting [8]) it was greater than 10000 nM; on PRMT5 [6] it was greater than 500 nM. The MTAP intact/deleted ratio result in assay [1] was “C (an IC50 ratio of less than 3 fold)”.
As to `COc1cc([C@@H]2CC[C@@H](C)CN2C(=O)C(=O)Nc2cnc(N)c(C)c2)ccn1` (single isomer, unassigned) [Compound 545], the IC50 in assay [1] (setting [7]) is less than 100 nM; on PRMT5 [2], less than 50 nM; in assay [3], 100 to 1000 nM; at PRMT5 [4] it was less than 50 nM; in assay [5] (setting [8]), less than 1000 nM; on PRMT5 [6] it was 50 to 500 nM. In assay [1], the MTAP intact/deleted ratio entry is “B (an IC50 ratio greater than or equal to 3 fold but lower than 10 fold)”.
Consider `COc1ncc(NC(=O)C(=O)N2C[C@H](C)CC[C@H]2c2cnc3[nH]ncc3c2)cc1C(N)=O` (single isomer, unassigned) [Compound 546], for which the IC50 in assay [1] (setting [7]) is 100 to 1000 nM; at PRMT5 [2], 50 to 500 nM; in assay [3] it was greater than 1000 nM; at PRMT5 [4] it was less than 50 nM; in assay [5] (setting [8]), 1000 to 10000 nM; at PRMT5 [6], 50 to 500 nM. Moreover, in assay [1], the MTAP intact/deleted ratio result is “A (an IC50 ratio greater than or equal to 10 fold)”.
